Measured values taken from US20180134683A1, “HETEROCYLCIC COMPOUNDS AS IDH2 INHIBITORS” (TELIGENE LTD., priority 2015, published 2018).
Values after ≈ are worked out from the molar mass of the structure shown. Where two headings read alike, the source gives them in different places.

What was measured:
IDH2 R140Q = biological target: T1, IDH2 R140Q (Homo sapiens, UniProt P48735, R140Q); test: IDH2 enzymatic assay (cofactor depletion assay); type: biochemical
T1 sequence (P48735 40-452 R140Q): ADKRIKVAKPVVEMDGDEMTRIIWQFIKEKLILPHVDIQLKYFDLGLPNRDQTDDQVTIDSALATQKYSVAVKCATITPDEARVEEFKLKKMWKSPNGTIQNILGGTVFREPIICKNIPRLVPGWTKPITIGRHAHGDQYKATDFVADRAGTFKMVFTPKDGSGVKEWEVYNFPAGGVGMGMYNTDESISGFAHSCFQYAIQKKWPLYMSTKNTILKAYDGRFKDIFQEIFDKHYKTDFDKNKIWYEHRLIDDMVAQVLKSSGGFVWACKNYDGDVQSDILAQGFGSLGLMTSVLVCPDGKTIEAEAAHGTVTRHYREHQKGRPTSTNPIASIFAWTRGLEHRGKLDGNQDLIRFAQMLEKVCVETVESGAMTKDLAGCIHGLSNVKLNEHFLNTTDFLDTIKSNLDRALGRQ
Method: Enzymatic Assay. Compounds were assayed for IDH2 R140Q inhibitory activity through a cofactor depletion assay. […] The reaction was terminated by the addition of a second enzyme, diaphorase, and a corresponding substrate, resazurin. Diaphorase reduces resazurin to the highly fluorescent resorufin with the concomitant oxidation of NADPH to NADP, both halting the IDH2 reaction by depleting the available cofactor pool and facilitating quantitation of the amount of cofactor remaining after a specific time period through quantitative production of an easily detected fluorophore. […] The compound was then incubated for one hour at room temperature with the enzyme; before starting the IDH2 reaction with the addition of 10 μl of substrate mix containing 50 μM NADPH and 6.3 mM a-KG in the buffer described above.

ALK (L1152 R) = ALK (L1152 R) (Homo sapiens, UniProt Q9UM73, L1152R); test: In vitro kinase assay (33P-ATP, P81 filter); type: biochemical; conditions: for remaining activity at 10 µM: 10 μM compound, 10 μM ATP
Method: (§1) These properties may be assesses, for example, using one or more of the procedures set out below: • An in vitro assay which determines the ability of a test compound to inhibit kinases. Conducts the kinase assay with the following condition and procedure: • Reagent: Base Reaction Buffer; 20 mM Hepes (pH 7.5), 10 mM MgCl2, 1 mM EGTA, 0.02% Brij35, 0.02 mg/ml BSA, 0.1 mM Na3VO4, 2 mM DTT, 1% DMSO.
(§2) • 1. Prepare indicated substrate in freshly prepared Base Reaction Buffer. • 2. Deliver any required cofactors to the substrate solution obtained in step 1. • 3. Deliver indicated kinase into the substrate solution prepared in step 2 and gently mix. • 4. Deliver compounds in DMSO into the kinase reaction mixture prepared in step 3. • 5. Deliver ^33P-ATP (specific activity 0.01 μCi/μl final) into the reaction mixture prepared in step 4 to initiate the reaction. • 6. Incubate kinase reaction for 120 min. at room temperature. • 7. Reactions are spotted onto P81 ion exchange paper (Whatman # 3698-915). • 8. Washing filters extensively in 0.75% Phosphoric acid. Compound was tested in single dose duplicate mode at a concentration of 10 μM, reactions were carried out at 10 μM ATP

c-MER (A708S) = biological target: T2, c-MER (A708S) (Homo sapiens, UniProt Q12866, A708S); test: In vitro kinase assay (33P-ATP, P81 filter); type: biochemical; conditions: for remaining activity at 10 µM: 10 μM compound, 10 μM ATP
T2 sequence (Q12866 21-999 A708S): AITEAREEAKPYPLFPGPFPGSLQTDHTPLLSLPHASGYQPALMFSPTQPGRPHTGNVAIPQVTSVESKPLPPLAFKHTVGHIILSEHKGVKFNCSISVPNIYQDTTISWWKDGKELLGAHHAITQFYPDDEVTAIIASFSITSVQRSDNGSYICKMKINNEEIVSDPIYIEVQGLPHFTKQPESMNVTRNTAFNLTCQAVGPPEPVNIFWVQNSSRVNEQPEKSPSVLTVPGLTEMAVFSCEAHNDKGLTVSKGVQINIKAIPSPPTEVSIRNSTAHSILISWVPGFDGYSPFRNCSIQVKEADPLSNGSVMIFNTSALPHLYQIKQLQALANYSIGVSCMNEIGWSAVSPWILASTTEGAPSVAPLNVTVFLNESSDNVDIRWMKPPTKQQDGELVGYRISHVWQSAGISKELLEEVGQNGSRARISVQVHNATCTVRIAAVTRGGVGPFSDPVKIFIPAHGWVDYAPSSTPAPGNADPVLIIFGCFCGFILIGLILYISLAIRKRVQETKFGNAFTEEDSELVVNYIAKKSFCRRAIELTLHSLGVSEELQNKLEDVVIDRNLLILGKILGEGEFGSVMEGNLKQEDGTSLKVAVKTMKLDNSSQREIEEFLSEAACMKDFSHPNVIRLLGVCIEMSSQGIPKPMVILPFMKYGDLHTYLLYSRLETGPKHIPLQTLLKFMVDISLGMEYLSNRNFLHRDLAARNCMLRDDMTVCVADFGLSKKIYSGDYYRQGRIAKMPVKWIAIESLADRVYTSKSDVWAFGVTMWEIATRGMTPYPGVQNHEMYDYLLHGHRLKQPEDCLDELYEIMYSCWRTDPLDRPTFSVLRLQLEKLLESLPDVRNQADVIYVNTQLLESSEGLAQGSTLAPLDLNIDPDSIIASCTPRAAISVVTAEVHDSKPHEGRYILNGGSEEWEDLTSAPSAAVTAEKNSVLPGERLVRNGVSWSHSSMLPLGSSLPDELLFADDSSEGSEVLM
Method: as §1, §2

AXL (R499C) = biological target: T3, AXL (R499C) (Homo sapiens, UniProt P30530, R499C); test: In vitro kinase assay (33P-ATP, P81 filter); type: biochemical; conditions: for remaining activity at 10 µM: 10 μM compound, 10 μM ATP
T3 sequence (P30530 26-894 R499C): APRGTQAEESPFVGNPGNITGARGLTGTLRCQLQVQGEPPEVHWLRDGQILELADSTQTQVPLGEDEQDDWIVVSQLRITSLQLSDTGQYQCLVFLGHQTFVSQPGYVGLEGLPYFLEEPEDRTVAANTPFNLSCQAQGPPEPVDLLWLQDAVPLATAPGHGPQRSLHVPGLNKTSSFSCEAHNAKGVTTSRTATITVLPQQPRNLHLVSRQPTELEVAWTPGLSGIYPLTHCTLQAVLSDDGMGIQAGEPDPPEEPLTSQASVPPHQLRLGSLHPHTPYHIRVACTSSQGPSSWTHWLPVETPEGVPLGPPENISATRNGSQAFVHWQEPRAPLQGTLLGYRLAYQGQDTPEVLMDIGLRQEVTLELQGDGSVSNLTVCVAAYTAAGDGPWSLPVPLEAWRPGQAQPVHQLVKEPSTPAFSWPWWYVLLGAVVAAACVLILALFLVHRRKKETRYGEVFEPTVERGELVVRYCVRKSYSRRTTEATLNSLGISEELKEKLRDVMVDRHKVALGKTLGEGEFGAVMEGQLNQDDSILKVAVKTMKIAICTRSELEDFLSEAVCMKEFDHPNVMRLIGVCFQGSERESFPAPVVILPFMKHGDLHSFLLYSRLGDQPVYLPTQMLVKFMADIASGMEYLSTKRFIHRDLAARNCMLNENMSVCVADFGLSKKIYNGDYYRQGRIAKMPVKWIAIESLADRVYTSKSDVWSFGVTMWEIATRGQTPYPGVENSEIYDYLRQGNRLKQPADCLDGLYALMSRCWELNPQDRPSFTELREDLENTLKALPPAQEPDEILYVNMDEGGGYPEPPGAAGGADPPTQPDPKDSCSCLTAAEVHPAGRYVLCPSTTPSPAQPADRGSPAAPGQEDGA
Method: as §1, §2

BRAF (G464V) = BRAF (G464V) (Homo sapiens, UniProt P15056, G464V); test: In vitro kinase assay (33P-ATP, P81 filter); type: biochemical; conditions: for remaining activity at 10 µM: 10 μM compound, 10 μM ATP
Method: as §1, §2

[1] = Solubility measurement (HPLC); type: physicochemical; conditions: for solubility at 30 min: aqueous buffer, thermodynamic from solid, 25° C.
Method: Preparation of reference standard solution: 2 mg of Compound 17 or Compound 19 was added individually to 100 mL volumetric flask each. The compound was diluted with acetonitrile to 100 mL.
Preparation of sample solution: 2 mg of Compound 17 or Compound 19 was added individually to 2 mL eppendorf tube (EP), followed by addition of 1 mL of pH 7.0 or 4.0 buffer solution (20 mM). The solution was shook for 2 minutes and left for 30 minutes at 25° C. After standing for 30 minutes, precipitate was formed in the bottom of the EP. The solutions was filtered through 0.2 um membrane filter, and then diluted by 50 times with water.
The standard and sample solutions were injected into the HPLC on a Shim-Pack CLC-ODS C18 column (150mm×6.0mm, 5um) with the same volume. The mobile phase consisted of acetonitrile with 2% trichloromethane−20 mM KH2PO4 buffer (pH=7.0) at a flow rate of 1 mL/minutes (40:60). The detection wavelength is at 264 nm. Calculation: solubility of sample=the concentration of standard×Area of sample×50 /Area of standard.

[2] = Pharmacokinetic (PK) profile
[3] = IDH2 R140Q, one hour preincubation, 60 minutes reaction, read-out: Enzyme Inhibition IDH2
[4] = duplicate 1, read-out: % Enzyme Activity (relative to DMSO controls) Data 1
[5] = duplicate 2, read-out: % Enzyme Activity (relative to DMSO controls) Data 2
[6] = pH 4.0 buffer solution (20 mM), read-out: Solubility at pH 4.0
[7] = pH 7.0 buffer solution (20 mM), read-out: Solubility at pH 7.0

Sequence of ALK (L1152 R) (Q9UM73 19-1620 L1152R): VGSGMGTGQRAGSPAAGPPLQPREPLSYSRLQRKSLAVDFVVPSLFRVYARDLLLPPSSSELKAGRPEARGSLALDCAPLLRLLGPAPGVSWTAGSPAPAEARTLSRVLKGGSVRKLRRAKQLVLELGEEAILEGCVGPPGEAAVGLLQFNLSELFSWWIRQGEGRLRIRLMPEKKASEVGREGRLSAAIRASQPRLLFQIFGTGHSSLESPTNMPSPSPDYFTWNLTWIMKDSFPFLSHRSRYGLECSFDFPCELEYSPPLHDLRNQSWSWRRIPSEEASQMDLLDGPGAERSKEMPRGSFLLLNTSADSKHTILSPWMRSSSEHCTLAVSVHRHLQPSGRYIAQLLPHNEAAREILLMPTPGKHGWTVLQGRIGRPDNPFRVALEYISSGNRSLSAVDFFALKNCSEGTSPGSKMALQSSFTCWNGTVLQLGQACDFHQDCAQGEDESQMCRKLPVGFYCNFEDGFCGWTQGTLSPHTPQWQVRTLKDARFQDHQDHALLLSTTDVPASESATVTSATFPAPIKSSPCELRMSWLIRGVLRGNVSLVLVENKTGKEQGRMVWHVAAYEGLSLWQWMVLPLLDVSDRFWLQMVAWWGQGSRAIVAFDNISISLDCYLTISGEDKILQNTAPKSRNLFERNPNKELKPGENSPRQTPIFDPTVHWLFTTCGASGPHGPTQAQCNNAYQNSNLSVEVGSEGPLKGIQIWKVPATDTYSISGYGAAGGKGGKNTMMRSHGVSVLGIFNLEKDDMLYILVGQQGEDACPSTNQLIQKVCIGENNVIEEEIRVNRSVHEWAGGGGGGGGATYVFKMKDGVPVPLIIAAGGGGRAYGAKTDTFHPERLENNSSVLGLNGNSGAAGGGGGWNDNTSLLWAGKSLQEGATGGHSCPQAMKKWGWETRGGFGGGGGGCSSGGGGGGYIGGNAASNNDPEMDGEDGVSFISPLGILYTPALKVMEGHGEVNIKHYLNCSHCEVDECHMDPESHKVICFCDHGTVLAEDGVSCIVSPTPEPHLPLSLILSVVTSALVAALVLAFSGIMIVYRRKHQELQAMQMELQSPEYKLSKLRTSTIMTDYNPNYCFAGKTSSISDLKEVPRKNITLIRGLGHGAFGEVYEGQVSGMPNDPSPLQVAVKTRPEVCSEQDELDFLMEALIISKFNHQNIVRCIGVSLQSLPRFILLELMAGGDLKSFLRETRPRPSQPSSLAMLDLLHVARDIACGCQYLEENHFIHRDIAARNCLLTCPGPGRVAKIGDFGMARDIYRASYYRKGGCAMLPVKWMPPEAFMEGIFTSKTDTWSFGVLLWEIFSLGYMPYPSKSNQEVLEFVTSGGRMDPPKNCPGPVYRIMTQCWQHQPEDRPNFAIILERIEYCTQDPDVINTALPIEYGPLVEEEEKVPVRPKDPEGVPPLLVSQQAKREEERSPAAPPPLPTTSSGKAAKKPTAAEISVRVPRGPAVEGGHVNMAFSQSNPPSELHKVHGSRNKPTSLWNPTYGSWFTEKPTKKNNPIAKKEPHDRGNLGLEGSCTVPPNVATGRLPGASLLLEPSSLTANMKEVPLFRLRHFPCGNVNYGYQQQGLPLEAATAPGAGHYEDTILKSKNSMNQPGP
Sequence of BRAF (G464V) (P15056 whole entry G464V): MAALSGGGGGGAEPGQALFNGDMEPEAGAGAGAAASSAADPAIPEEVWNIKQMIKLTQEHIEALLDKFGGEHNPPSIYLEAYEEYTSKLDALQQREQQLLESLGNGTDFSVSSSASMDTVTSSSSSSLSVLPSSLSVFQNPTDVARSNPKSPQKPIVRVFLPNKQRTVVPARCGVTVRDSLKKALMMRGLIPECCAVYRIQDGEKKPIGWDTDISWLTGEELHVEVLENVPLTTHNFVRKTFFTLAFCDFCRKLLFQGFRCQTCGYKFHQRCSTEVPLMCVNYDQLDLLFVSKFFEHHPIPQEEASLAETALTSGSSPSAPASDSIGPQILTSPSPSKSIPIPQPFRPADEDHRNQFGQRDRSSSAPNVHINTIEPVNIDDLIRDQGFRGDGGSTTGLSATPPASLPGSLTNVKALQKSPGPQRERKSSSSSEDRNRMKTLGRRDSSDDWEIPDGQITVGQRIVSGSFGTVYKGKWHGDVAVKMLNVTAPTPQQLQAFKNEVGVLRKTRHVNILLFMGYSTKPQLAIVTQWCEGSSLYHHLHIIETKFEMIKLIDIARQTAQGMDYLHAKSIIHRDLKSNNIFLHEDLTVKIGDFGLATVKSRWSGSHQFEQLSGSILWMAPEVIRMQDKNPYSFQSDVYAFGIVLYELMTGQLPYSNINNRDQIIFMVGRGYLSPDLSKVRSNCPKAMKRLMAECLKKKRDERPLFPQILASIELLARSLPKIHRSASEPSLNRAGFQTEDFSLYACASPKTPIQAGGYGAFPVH

Row | Structure (SMILES) | IC50 (IDH2 R140Q; [3]) | remaining activity at 10 µM (ALK (L1152 R); [4]) | remaining activity at 10 µM (ALK (L1152 R); [5]) | activity against kinase (in words) (ALK (L1152 R); panel of kinases) | remaining activity at 10 µM (c-MER (A708S); [4]) | remaining activity at 10 µM (c-MER (A708S); [5]) | activity against kinase (in words) (c-MER (A708S); panel of kinases) | remaining activity at 10 µM (AXL (R499C); [4]) | remaining activity at 10 µM (AXL (R499C); [5]) | activity against kinase (in words) (AXL (R499C); panel of kinases) | remaining activity at 10 µM (BRAF (G464V); [4]) | remaining activity at 10 µM (BRAF (G464V); [5]) | activity against kinase (in words) (BRAF (G464V); panel of kinases) | solubility at 30 min [1, 6] | solubility at 30 min [1, 7] | solubility compared with Compound 19 (in words) ([1]; pH=4.0) | solubility compared with Compound 19 (in words) ([1]; pH=7.0) | pharmacokinetic (PK) profile compared with Compound 19 (in words) [2] | safety profile compared with Compound 19 (in words) (Safety profile) | IC50 (IDH2 R140Q)
1 | CN(C)c1nc(Nc2ccnc(C(F)(F)F)c2)nc(-c2cccc(C(F)(F)F)n2)n1 [Compound 18, N^2,N^2-dimethyl-6-(6-(trifluoromethyl)pyridin-2-yl)-N^4-(2-(trifluoromethyl)pyridin-4-yl)-1,3,5-triazine-2,4-diamine] | 12.2 nM | – | – | – | – | – | – | – | – | – | – | – | – | – | – | – | – | – | – | –
2 | CN1CCN(c2nc(Nc3ccnc(C(F)(F)F)c3)nc(-c3cccc(C(F)(F)F)n3)n2)CC1 [Compound 17, 4-(4-methylpiperazin-1-yl)-6-(6-(trifluoromethyl)pyridin-2-yl)-N-(2-(trifluoromethyl)pyridin-4-yl)-1,3,5-triazin-2-amine] | 262 nM | 79.2% | 78.9% | active | 79.8% | 79.5% | active | 58.2% | 58.1% | active | 69.9% | 68.9% | active | 123 µg/mL (≈ 254 µM) | 0.276 µg/mL (≈ 0.57 µM) | much higher solubility | better solubility | better pharmacokinecitc (PK) | favorable safety profile | –
3 | CC(C)(O)CNc1nc(Nc2ccnc(C(F)(F)F)c2)nc(-c2cccc(C(F)(F)F)n2)n1 [Compound 19, reference compound] | – | – | – | – | – | – | – | – | – | – | – | – | – | 1.59 µg/mL (≈ 3.36 µM) | 0.109 µg/mL (≈ 0.23 µM) | – | – | – | – | 401 nM
